In experiment [1] the test system is F. graminearum hyphae. The experiment is classed as cell-based, Fusarium graminearum.
In experiment [2] the test system is F. graminearum hyphae. The experiment is classed as cell-based, Fusarium graminearum. The source holds these as a separate data set.
A further experiment deals with Aspergillus flavus. The format is cell-based.
[3] abbreviates: PH-1 conidia, microscopic observation after overnight (16 hours) incubation.
The mark [4] stands for this setting: F. graminearum PH-1, SFM without calcium.
Setting [5] is: PH-1, all concentrations tested.

Where two headings read alike, the source gives them in different places. Ends that are not written are not given here. Peptide text beside a SMILES is read from it.

We go through 11 molecules from PMC3076432 (PLoS ONE, 2011).

As for `C[C@H](NC(=O)CNC(=O)[C@@H](N)CCCNC(=N)N)C(=O)N[C@@H](CCCNC(=N)N)C(=O)N[C@@H](CCCNC(=N)N)C(=O)N[C@@H](CCCNC(=N)N)C(=O)O` [GMA4-L1] (H-RGARRR-OH; N-terminus and C-terminus assumed), the “SYTOX Green uptake at 24 µM” value in the experiment on F. graminearum hyphae [1] (24 µM) is on record as > 100 fluorescence units. In the experiment with F. graminearum PH-1, the “IC100: amount of protein required to inhibit F. graminearum conidial germination completely” value was >96 µM and the “growth inhibition at 24 µM, 16 hours (in words)” value was “mild growth inhibition”. In addition, the “growth inhibition at 96 µM” value with F. graminearum PH-1 (PH-1, 16 h) was 30–40%. Besides, the IC50 (as a rule, the concentration that gives 50% inhibition) in the experiment with F. graminearum PH-1 (PH-1, 36 h) is > 96 µM.
Take `N=C(N)NCCC[C@H](NC(=O)CN)C(=O)N[C@@H](CS)C(=O)N[C@@H](CCCNC(=N)N)C(=O)NCC(=O)N[C@@H](Cc1ccccc1)C(=O)N[C@@H](CCCNC(=N)N)C(=O)N[C@@H](CCCNC(=N)N)C(=O)N[C@@H](CCCNC(=N)N)C(=O)N[C@@H](CS)C(=O)O` [GMA4] (H-GRCRGFRRRC-OH; N-terminus and C-terminus assumed): in the experiment on F. graminearum PH-1 (PH-1 conidia), the “concentration giving complete inhibition of conidial germination (IC100)” value (“concentration giving complete inhibition” below) is on record as 12 µM. In the experiment with F. graminearum PH-1 (setting [3]), the “lowest concentration at which antifungal activity / growth inhibition was evident” value was 6 µM.
Take `C[C@H](NC(=O)[C@H](Cc1ccccc1)NC(=O)CNC(=O)[C@@H](N)CCCNC(=N)N)C(=O)N[C@@H](CCCNC(=N)N)C(=O)N[C@@H](CCCNC(=N)N)C(=O)O` [GMA4-L2] (H-RGFARR-OH; N-terminus and C-terminus assumed): the “SYTOX Green uptake (in words)” value in the experiment on F. graminearum hyphae [1] is “failed to induce any uptake”. Moreover, in the experiment with F. graminearum PH-1, the “IC100: amount of protein required to inhibit F. graminearum conidial germination completely” value was >96 µM and the “growth inhibition at 24 µM, 16 hours (in words)” value is “mild growth inhibition”. Besides, the “growth inhibition at 96 µM” value in the experiment on F. graminearum PH-1 (PH-1, 16 h) is given as 30–40%. In the experiment with F. graminearum PH-1 (PH-1, 36 h), the IC50 was > 96 µM.
Take “RTCESQSHKFKGPCASDHNCASVCQTERFSGGRCRGFRRRCFCTTHC (also: bicyclic or more (positions not given here)) [MtDef4]”: the “hyphal morphology compared with untreated control hyphae” value in the experiment on F. graminearum hyphae [2] is “no difference”. In the experiment on F. graminearum hyphae [1], the “SYTOX Green uptake (in words)” value is “increased in a concentration dependant manner” and the “time to start of SG uptake after addition of defensin” value is ≤ 5 min. For the same molecule, in the experiment on F. graminearum hyphae [1] (6 µM, 5 hours), the “maximum SYTOX Green fluorescence at 6 µM, 5 hours” value is on record as 702±10 units. In addition, in the experiment with F. graminearum PH-1, the “IC100: amount of protein required to inhibit F. graminearum conidial germination completely” value lay in the range of 1.5 to 2.5 µM and the “concentration giving complete inhibition” value was found to be 1.5 µM. In the experiment with F. graminearum PH-1 (1.5 µM), the “fungal growth inhibition at 1.5 µM” value was found to be 100%. In addition, the IC50 with F. graminearum PH-1 (read-out: IC50: amount of protein required for inhibiting 50% growth of F. graminearum) lay within 0.75 to 1 µM. For the same molecule, in the experiment with Aspergillus flavus, the “growth inhibition of A. flavus at 48 µM” value was “approximately 75%”.
In the case of `C[C@H](NC(=O)[C@H](CS)NC(=O)[C@@H]1CCCN1C(=O)CN)C(=O)N[C@@H](CO)C(=O)N[C@@H](CC(=O)O)C(=O)N[C@@H](Cc1c[nH]cn1)C(=O)N[C@@H](CC(N)=O)C(=O)N[C@@H](CS)C(=O)O` [ALP4] (H-GPCASDHNC-OH; N-terminus and C-terminus assumed), the “antifungal activity at 48 µM (in words)” value in the experiment with F. graminearum PH-1 (PH-1) is “no antifungal activity”. The “IC100: amount of protein required to inhibit F. graminearum conidial germination completely” value in the experiment on F. graminearum PH-1 (setting [4]) is >48 µM. Besides, the “antifungal activity (in words)” value in the experiment with F. graminearum PH-1 (setting [5]) is “totally inactive”.
For `NCC(=O)N1CCC[C@H]1C(=O)N[C@@H](CS)C(=O)N[C@@H](Cc1ccccc1)C(=O)N[C@@H](CO)C(=O)NCC(=O)N[C@@H](CS)C(=O)O` [ALP1] (H-GPCFSGC-OH; N-terminus and C-terminus assumed) the same measures were “no antifungal activity”, >48 µM and “totally inactive”.
Consider `C[C@@H](O)[C@H](NC(=O)[C@H](CS)NC(=O)[C@H](Cc1c[nH]c2ccccc12)NC(=O)[C@H](CS)NC(=O)[C@H](CCCNC(=N)N)NC(=O)[C@H](Cc1ccccc1)NC(=O)[C@H](CC(=O)O)NC(=O)[C@H](CC(=O)O)NC(=O)[C@H](CCCNC(=N)N)NC(=O)[C@H](CS)NC(=O)[C@H](CCCNC(=N)N)NC(=O)CN)C(=O)N[C@@H](CCCCN)C(=O)N[C@@H](CCCNC(=N)N)C(=O)N[C@@H](CS)C(=O)O` [GMA1-C] (H-GRCRDDFRCWCTKRC-OH; N-terminus and C-terminus assumed), for which the “SG uptake at 24 µM relative to that induced by GMA4-C” value in the experiment with F. graminearum hyphae [1] (24 µM) is listed as “twice”. Moreover, the “IC100: amount of protein required to inhibit F. graminearum conidial germination completely” value with F. graminearum PH-1 (setting [4]) stood at 24 µM. Further, the “hyperbranching of fungal hyphae” value in the experiment with F. graminearum PH-1 (PH-1, microscopy after 16 hours) was “did not cause hyperbranching”. Further, the “concentration giving complete inhibition” value in the experiment on F. graminearum PH-1 (PH-1 conidia) amounted to 24 µM. Moreover, the “lowest concentration at which antifungal activity / growth inhibition was evident” value with F. graminearum PH-1 (setting [3]) is on record as 6 µM.
In the case of `N=C(N)NCCC[C@H](NC(=O)[C@H](CCCNC(=N)N)NC(=O)[C@H](CCCNC(=N)N)NC(=O)[C@H](Cc1ccccc1)NC(=O)CNC(=O)[C@@H](N)CCCNC(=N)N)C(=O)O` [GMA4-L] (H-RGFRRR-OH), the “fungal growth inhibition at 12 µM” value in the experiment on F. graminearum PH-1 (PH-1, 16 h, 12 µM) was found to be 100%. Besides, in the experiment with F. graminearum PH-1 (PH-1, 36 h), the half-maximal inhibitory concentration (IC50) turned out to be 4 µM. For the same molecule, the “fungal growth inhibition at 6 µM” value in the experiment with F. graminearum PH-1 (PH-1, 36 h, 6 µM) turned out to be 91±7%.
As to `C[C@@H](O)[C@H](NC(=O)[C@H](CS)NC(=O)[C@H](Cc1ccccc1)NC(=O)[C@H](CS)NC(=O)[C@H](CCCNC(=N)N)NC(=O)[C@H](CCCNC(=N)N)NC(=O)[C@H](CCCNC(=N)N)NC(=O)[C@H](Cc1ccccc1)NC(=O)CNC(=O)[C@H](CCCNC(=N)N)NC(=O)[C@H](CS)NC(=O)[C@H](CCCNC(=N)N)NC(=O)CN)C(=O)N[C@H](C(=O)N[C@@H](Cc1c[nH]cn1)C(=O)N[C@@H](CS)C(=O)O)[C@@H](C)O` [GMA4-C] (H-GRCRGFRRRCFCTTHC-OH; N-terminus and C-terminus assumed), in the experiment with F. graminearum PH-1, the “IC100: amount of protein required to inhibit F. graminearum conidial germination completely” value was found to be 6 µM, the “concentration giving complete inhibition” value came to 6 µM and the “lowest concentration at which antifungal activity / growth inhibition was evident” value is reported as 1.5 µM. For the same molecule, the “fungal growth inhibition at 3 µM” value in the experiment with F. graminearum PH-1 (PH-1, 16 h, 3 µM) was determined as 70±9%. The molecule further yielded an IC50 with F. graminearum PH-1 (PH-1, 36 h) of 3 µM.
For `N=C(N)NCCC[C@H](NC(=O)[C@H](Cc1ccccc1)NC(=O)[C@H](CC(=O)O)NC(=O)[C@H](CC(=O)O)NC(=O)[C@@H](N)CCCNC(=N)N)C(=O)O` [GMA1-L] (H-RDDFR-OH; N-terminus and C-terminus assumed), the “SYTOX Green uptake (in words)” value in the experiment on F. graminearum hyphae [1] was “failed to induce any uptake”. Further, in the experiment on F. graminearum PH-1, the “IC100: amount of protein required to inhibit F. graminearum conidial germination completely” value is recorded as >96 µM, the “antifungal activity (in words)” value is listed as “no antifungal activity” and the “antifungal activity at 96 µM (in words)” value was “inactive”. In the experiment on F. graminearum PH-1 (PH-1, 36 h), the IC50 was > 96 µM.
In the case of `N=C(N)NCCC[C@H](NC(=O)CN)C(=O)N[C@@H](CS)C(=O)N[C@@H](CCCNC(=N)N)C(=O)N[C@@H](CC(=O)O)C(=O)N[C@@H](CC(=O)O)C(=O)N[C@@H](Cc1ccccc1)C(=O)N[C@@H](CCCNC(=N)N)C(=O)N[C@@H](CS)C(=O)O` [GMA1] (H-GRCRDDFRC-OH; N-terminus and C-terminus assumed), in the experiment with F. graminearum PH-1 (PH-1), the “antifungal activity at 48 µM (in words)” value is recorded as “no antifungal activity” and the “antifungal activity at 96 µM (in words)” value is given as “failed to show any antifungal activity”. Besides, the “IC100: amount of protein required to inhibit F. graminearum conidial germination completely” value in the experiment on F. graminearum PH-1 (setting [4]) is >192 µM. Moreover, the “antifungal activity (in words)” value in the experiment on F. graminearum PH-1 (setting [5]) was “inactive”.
